From US20250041231A1, “5-AMINOLEVULINIC ACID FOR THE LOCAL TREATMENT OF INFLAMMATORY BOWEL DISEASE” (Intract Pharma Limited, priority 2019, published 2025)
Entries after “also recorded” stand apart in the source; their conditions may differ.

Columns and labels:
[1] = Human colon model (faecal slurry): stability of 5-ALA with SFC and formation of PpIX; format: in vitro ADME
Procedure: (§1) A human colonic model based on a mixed fecal inoculum was used to mimic the luminal environment of the human large intestine. An anaerobic workstation (Electrotek 500TG™ workstation, Electrotek, West Yorkshire, UK) maintained at 37° C. and 70% relative air humidity was used to set up the model. The fecal material was transferred in the anaerobic workstation and diluted with freshly prepared basal medium to obtain 20% w/w slurry by homogenization. The basal media provides nutrients and growth factors to the microbiota allowing viability for up to 24 hours. The homogenized bacterial media was sieved through an open mesh fabric (SefarNitex™, pore size 350 μm) to remove any nonhomogeneous fibrous material. […]
(§2) For 5-ALA analysis, a 150×4.6-mm Jupiter 5 μm 300 Å (Phenomenex, Torrance, CA) C18 column was used using 70% water (0.1% TFA) and 30% acetonitrile (0.1% TFA) as the mobile phase for elution, at a flow rate of 1 ml/min. The analysis was operated at room temperature and fluorescence detection wavelength was set at 395/480 nm excitation/emission. […]
(§3) For PpIX analysis, a 150×4.6-mm Aeris 3.6 μm 100 Å (Phenomenex, Torrance, CA) C18 column was used using 70% acetonitrile and 30% 10 mM TBA solution (pH 7.5) as the mobile phase at a flow rate of 1 ml/min. The analysis was operated at room temperature and fluorescence detection wavelength was set at 400/630 nm excitation/emission. […]

[2] = Mouse colon model (faecal slurry): stability of 5-ALA with SFC and formation of PpIX; format: in vitro ADME, C57BL6 mice
Procedure: as §1, with “mouse” for “human”, “model. Three healthy male C57BL6 mice were sacrificed and the fecal contents were collected.” for “model.”, “upto” for “up to”, “hours.” for “hours. The homogenized bacterial media was sieved through an open mesh fabric (SefarNitex™, pore size 350 μm) to remove any nonhomogeneous fibrous material.”
as §2, §3

[3] = Ussing chamber: human colon tissue penetration and permeability of 5-ALA with SFC, metabolite formation; format: in vitro ADME
Procedure: (§4) The chambers are made of solid acrylic and supports the tissue membrane in such a way that each side of the membrane is isolated and faces a different chamber representing the luminal (apical) and blood (basal) compartments. The working system consists of a unit to fit a maximum of six vertical chambers, a gas manifold for carbogen purging (95% O2, 5% CO2) and a heater block to maintain the temperature of the chambers at 37° C. during the experiments with the use of a circulating water bath. The chambers are two-piece assemblies held together by a high spring-tension retaining ring to ensure leak-free operation during the experiments.
(§5) The EVOM™ voltohmmeter (World Precision Instruments, Inc., Hertfordshire, UK) and Ag/AgCl electrodes (Harvard Apparatus, Cambridge, UK) were used to measure the trans-epithelial electrical resistance (TEER) of the tissue samples. TEER monitors the presence of functional tight junctions, which are responsible for the barrier function and which limit Paracellular permeation of water and solutes. […]
(§6) For the tissue penetration studies, the freshly excised colon of human subject or C57BL6 mice was collected and transferred to an ice-cold solution of Krebs-Bicarbonate Ringer solution (KBr) of pH 7.4. […] The TEER was continuously monitored during the experiment to confirm the viability and integrity of the tissue.

[4] = Ussing chamber: mouse colon tissue penetration and permeability of 5-ALA with SFC, metabolite formation; format: in vitro ADME, C57BL6 mice; conditions: mouse colon vs human colon, 3 hours
Procedure: as §4, §5, §6

[5] = tested on: DSS induced colitis mouse model
[6] = intra-colonic vs oral, 10 and 100 mg/kg, day 10
[7] = oral vs intra-colonic dosing, day 10

NCC(=O)CCC(=O)O [5-ALA, 5-aminolevulinic acid]
Stability of 5-ALA in human colon fluid ([1]; 6 mg/ml 5-ALA + 1 mg/ml SFC, 10% w/w human faecal slurry, up to 24 hrs): completely stable; also recorded: very stable
Conversion of 5-ALA into PpIX in human colon fluid ([1]; in the presence of SFC): no conversion; also recorded: no metabolism
Stability of 5-ALA in mouse colon fluid ([2]; 6 mg/ml 5-ALA + 1 mg/ml SFC, 10% w/w mouse faecal slurry, up to 24 hrs): completely stable
Conversion of 5-ALA into PpIX in mouse colon fluid ([2]; in the presence of SFC): no conversion
Tissue conc. of 5-ALA ([3]; human colon vs mouse colon, Ussing chamber, 3 hours): higher in human colon compared to mouse colon
Penetration of 5-ALA into colon tissue ([3]; human colonic tissue in vitro): readily able to penetrate effectively into colon tissue
Permeability of 5-ALA across the tissue [4]: higher
Reduction of expression of IL-1β in the colon tissue and plasma [5, 6]: significantly better than after oral administration
Reduction of expression of IL-6 in the colon tissue and plasma [5, 6]: significantly better than after oral administration
Reduction of expression of TNF-α in the colon tissue and plasma [5, 6]: significantly better than after oral administration
Expression of HO-1 in the colon tissue and plasma ([5]; oral vs intra-colonic dosing): no significant difference
Expression of 5-ALA metabolite PpIX in the plasma ([5]; oral vs intra-colonic dosing, 10 and 100 mg/kg): Significantly enhanced expression of PpIX was observed in the plasma after oral dosing, but not intra-colonic dosing
Bilirubin expression in the colon tissue and plasma [5, 7]: no significant difference
Biliverdin expression in the colon tissue and plasma [5, 7]: no significant difference
Reduction in inflammatory cytokines compared with 5-ASA ([5]; vs 5-ASA 50 mg/kg oral and intra-colonic): superior to 5-ASA given both orally and intra-colonic
